According to patent US10532068B2, “Dual molecular delivery of oligonucleotides and peptide containing conjugates” (Merck Sharp & Dohme Corp., priority 2013, dated 2020):
Where no end group is shown, it is not given here. [ ]: non-standard residue; d: D form. S‑S‑TGN = not defined here; TGN = not defined here

System: CTNNB1
Assay: In vivo evaluation in mice: liver mRNA knockdown measurement (TaqMan qPCR)
Parameters: species or system CD-1 mice
Method: Female CD-1 mice (Charles River) were injected in accordance with either a sequential dosing paradigm or a co-dosing paradigm. In the sequential dosing paradigm, the targeted siRNA (SCE) is dosed at t=0 and the targeted peptide is separately dosed up to 2 hr before the SCE (−2 hr) or up to 24 hr after the SCE (+24 hr). In the co-dosing paradigm, the SCE and peptides are co-formulated and dosed together in the same formulation as a single injection at t=0. The mice were dosed either by intravenous (i.v.) or subcutaneous (s.c.) injection of SCE and peptide. For the i.v. doses, the compounds were injected into the tail vein of the mice. For the s.c. doses, the compounds were injected in the subcutaneous space on the back of the mouse between the shoulder blades. At the indicated harvest times (measured from t=0 when the siRNA was dosed, regardless of when the peptide was dosed), the animals were sacrificed and 3 mm liver punches were collected, preserved in RNAlater (Ambion), and stored at 4° C. Separate 5 mm liver punches were collected, placed in 96-well plates, frozen on dry ice, and stored at −80° C. until use.
The 3 mm liver punches were removed from RNAlater and homogenized in Trizol (Invitrogen) using a bead mill tissue lyser (Qiagen); disruption was performed for two 5-minute cycles at 30 Hz. RNA extraction was performed using 1-bromo-2-chloropropane (Acros Organics) and total RNA was isolated from the aqueous phase using the MagMax RNA isolation method (Ambion). […] TaqMan qPCR analysis was performed with an ABI 7900 Real-Time PCR System using TaqMan Fast Advanced Master Mix (Applied Biosystems). All TaqMan probes and primers for CTNNB1 and PPIB (housekeeping gene) were purchased from Applied Biosystems as pre-validated gene expression assays. Results are calculated by the comparative Ct method, where the difference between the CTNNB1 Ct value and the PPIB Ct value (ΔCt) is calculated and then further normalized relative to the PBS control by taking a second difference (ΔΔCt), as described previously (1).

[1] = Table 6, mice, sequential, peptide IV 15 min after siRNA IV, TGN-L-siRNA-III 0.25 mg/kg, peptide 2 mg/kg
[2] = Table 6, mice, sequential, peptide IV 15 min after siRNA IV, TGN-L-siRNA-III 0.25 mg/kg, peptide 10 mg/kg
[3] = Table 6, mice, sequential, peptide IV 15 min after siRNA IV, TGN-L-siRNA-III 0.5 mg/kg, peptide 5 mg/kg
[4] = Table 6, mice, sequential, peptide IV 15 min after siRNA IV, TGN-L-siRNA-III 0.25 mg/kg, peptide 5 mg/kg

Substance | In vivo mRNA knockdown (%) [2] [%] | other results
TGN-CDM-SEQ ID NO: 1801 (D): TGN-CDM peptide, peptide glfgeieelieeglenlidwgng; C8 made from same all-D sequence (SEQ ID NO: 1074) (G[dL][dF]G[dE][dI][dE][dE][dL][dI][dE][dE]G[dL][dE][dN][dL][dI][dD][dW]G[dN]G; also: TGN-CDM conjugate; listed as Homo sapiens) |  | In vivo mRNA knockdown (%) (Table 8 (disulfide vs. ECL vs. CDM linkage), TGN-L-siRNA-II 0.25 mg/kg, targeted peptide 1 mg/kg): 23.0%; In vivo mRNA knockdown (%) (Table 8 (disulfide vs. ECL vs. CDM linkage), TGN-L-siRNA-II 0.25 mg/kg, targeted peptide 3 mg/kg): 24.9%
TGN-S-S-SEQ ID NO: 935 (L) (C(TGN)GFFGEIAELIWEGLKNLIDWWNG; reading uncertain; also: TGN attached via disulfide (S-S); listed as Homo sapiens) | 23 | In vivo mRNA knockdown (%) [1]: 17%
TGN-S-S-SEQ ID NO: 1248 (L) (C(TGN)FLEELWELLEHLL; reading uncertain; listed as Homo sapiens) |  | In vivo mRNA knockdown (%) [3]: 24%
TGN-S-S-SEQ ID NO: 1403 (L) (C(TGN)GLLEEIEELLEEGLENLIDWWNS; reading uncertain; listed as Homo sapiens) | 24 | In vivo mRNA knockdown (%) [1]: 22%
TGN-S-S-SEQ ID NO: 1489 (D) ([dC](S‑S‑TGN)[dL][dE][dL][dW][dL][dE][dH][dL][dF][dL][dE][dL][dE]; reading uncertain; also: Cys disulfide-linked to TGN peptide; listed as Homo sapiens) |  | In vivo mRNA knockdown (%) (Table 6, mice, sequential, peptide IV 15 min after siRNA IV, TGN-L-siRNA-III 0.5 mg/kg, peptide 2 mg/kg): 37%; In vivo mRNA knockdown (%) (Table 6, mice, sequential, peptide IV 15 min after siRNA IV, TGN-L-siRNA-III 0.5 mg/kg, peptide 10 mg/kg): 26%; In vivo mRNA knockdown (%) (Table 6, mice, sequential, peptide IV 15 min after siRNA IV, TGN-L-siRNA-III 0.5 mg/kg, peptide 25 mg/kg): 34%
TGN-S-S-SEQ ID NO: 1516 (L) (C(TGN)GLFAEIEELLEEGLENLIDWWNG; reading uncertain; listed as Homo sapiens) |  | In vivo mRNA knockdown (%) [4]: 14%
TGN-S-S-SEQ ID NO: 1631 (D) ([dC](S‑S‑TGN)G[dL][dF]G[dH][dI][dH][dH][dL][dI][dH][dH]G[dL][dH][dN][dL][dI][dD][dW][dW][dN]G; reading uncertain; also: Cys disulfide-linked to TGN peptide; listed as Homo sapiens) | 17 | 
TGN-S-S-SEQ ID NO: 1632 (D) ([dC](S‑S‑TGN)G[dL][dF]G[dE][dI][dH][dH][dL][dI][dH][dH]G[dL][dH][dN][dL][dI][dD][dW][dW][dN]G; reading uncertain; also: Cys disulfide-linked to TGN peptide; listed as Homo sapiens) | 36 | 
TGN-S-S-SEQ ID NO: 1633 (D) ([dC](TGN)G[dL][dF]G[dE][dI][dH][dH][dL][dI][dH][dH]G[dL][dE][dN][dL][dI][dD][dW][dW][dN]G; reading uncertain; also: Cys disulfide-linked to TGN peptide; listed as Homo sapiens) | 55 | 
TGN-S-S-SEQ ID NO: 1634 (D) ([dC](TGN)G[dL][dF]G[dE][dI][dH][dE][dL][dI][dH][dH]G[dL][dE][dN][dL][dI][dD][dW][dW][dN]G; reading uncertain; also: Cys disulfide-linked to TGN peptide; listed as Homo sapiens) | 17 | 
TGN-S-S-SEQ ID NO: 1643 (D) ([dC](TGN)G[dF][dF]G[dE][dI][dA][dE][dL][dI][dE][dE]G[dL][dK][dN][dL][dI][dD][dW]G[dN]G; reading uncertain; also: Cys disulfide-linked to TGN peptide; listed as Homo sapiens) | 41 | 
TGN-S-S-SEQ ID NO: 1651 (D) ([dC](TGN)G[dL][dF][dE][dE][dI][dA][dE][dL][dI][dE][dE]G[dL][dE][dN][dL][dI][dD][dW]G[dN]G; reading uncertain; also: Cys disulfide-linked to TGN peptide; listed as Homo sapiens) | 49 | 
TGN-S-S-SEQ ID NO: 1652 (D) ([dC](TGN)[dE][dL][dF][dE][dE][dL][dA][dE][dL][dL][dW][dE]G[dL][dE][dN][dL][dI][dD][dW]G[dN][dS]; reading uncertain; also: Cys disulfide-linked to TGN peptide; listed as Homo sapiens) | 37 | 
TGN-S-S-SEQ ID NO: 1653 (D) ([dC](TGN)G[dL][dF]G[dE][dI][dA][dE][dL][dI][dW][dE]G[dL][dE][dN][dL][dI][dD][dW]G[dN]G; reading uncertain; also: Cys disulfide-linked to TGN peptide; listed as Homo sapiens) | 63 | In vivo mRNA knockdown (%) (Table 6, mice, sequential, peptide IV 15 min after siRNA IV, TGN-L-siRNA-III 0.25 mg/kg, peptide 50 mg/kg): 69%
TGN-S-S-SEQ ID NO: 1712 (L) (C(TGN)FLGALWKALSELLKNLIDWWNG; reading uncertain; also: Cys disulfide-linked to TGN peptide; listed as Homo sapiens) |  | In vivo mRNA knockdown (%) [3]: 34%
TGN-S-S-SEQ ID NO: 1713 (L): TGN-S-S-peptide, peptide CGL-R6H-GELEEL-S7H-EEGLENLIDWWNG (STAPLED) | 2 | In vivo mRNA knockdown (%) [1]: 0%
TGN-S-S-SEQ ID NO: 1716 (L) (C(TGN)GLFEELAGLLWHGLKNLIDWWNG; reading uncertain; also: Cys disulfide-linked to TGN peptide; listed as Homo sapiens) |  | In vivo mRNA knockdown (%) [3]: 39%
TGN-S-S-SEQ ID NO: 1717(L): TGN-S-S-peptide, peptide CFLGALFHALSHLLENLIDWWNG (C(TGN)FLGALFHALSHLLENLIDWWNG; reading uncertain; also: Cys disulfide-linked to TGN peptide; listed as Homo sapiens) |  | In vivo mRNA knockdown (%) [3]: 16%
TGN-S-S-SEQ ID NO: 1719 (L) (C(TGN)GLFAEIEELIWEGLENLIDWWNQ; reading uncertain; also: Cys disulfide-linked to TGN peptide; listed as Homo sapiens) |  | In vivo mRNA knockdown (%) [4]: 25%
TGN-S-S-SEQ ID NO: 1725 (L) (C(TGN)SSAWWSYWPPVA; reading uncertain; also: Cys disulfide-linked to TGN peptide; listed as Homo sapiens) | 19 | 
TGN-S-S-SEQ ID NO: 1726(D) ([dC](TGN)G[dL][dF][dA][dV][dI][dK][dK][dV][dA][dS][dV][dI]GG[dL]; reading uncertain; also: Cys disulfide-linked to TGN peptide; listed as Homo sapiens) | 23 | 
TGN-S-S-SEQ ID NO: 1727 (D) ([dC](TGN)G[dL][dF][dA][dV][dI][dH][dH][dV][dA][dS][dV][dI]GG[dL]; reading uncertain; also: Cys disulfide-linked to TGN peptide; listed as Homo sapiens) | 26 | 
TGN-S-S-SEQ ID NO: 1728(D) ([dC](TGN)G[dL][dF][dA][dV][dI][dE][dE][dV][dA][dS][dV][dI]GG[dL]; reading uncertain; also: Cys disulfide-linked to TGN peptide; listed as Homo sapiens) | 23 | 
TGN-S-S-SEQ ID NO: 1729 (L) (C(TGN)GPSQPTYPGDDAPVRDLIRFYRDLRRYLNVVTRHRY; reading uncertain; also: Cys disulfide-linked to TGN peptide; listed as Homo sapiens) | 10 | 
TGN-S-S-SEQ ID NO: 1730 (D): TGN-S-S-peptide, peptide CGIGAVLHVLTTGLPALISWIKRKRQQ | 43 | 
TGN-S-S-SEQ ID NO: 1731(D): TGN-S-S-peptide, peptide CGIGAVLHVLTTGLPALISWIHHHHQQ | 30 | 
TGN-S-S-SEQ ID NO: 1732 (D): TGN-S-S-peptide, peptide AC-GIFEAIAGLLKINFKC |  | In vivo mRNA knockdown (%) [4]: 35%
